Patent US20070248668A1, “Pharmaceutical compositions and uses thereof” (priority 2006, published 2007)
Values after ≈ are worked out from the molar mass of the structure shown.

Columns and labels:
[1] = Pharmacokinetics after single peroral 5 mg rifalazil, fed and fasted; type: in vivo; conditions: liquid-filled vs microgranulated, beagle dogs
Protocol: Pharmacokinetic parameters were determined following a single peroral administration of 5 mg of rifalazil in healthy male beagle dogs. The rifalazil was formulated either as a liquid-filled capsule of Example 5 or as a powder-filled capsule containing microgranulated rifalazil as described in U.S. Pat. No. 5,547,683.
Both formulations were administered under fed and fasted conditions. All animals were fasted overnight prior to dosing. Animals designated as “fed” were administered a blended combination of dog chow and water in a 1:3 ratio (e.g. 250 g chow and 750 g water) via oral gavage at a dose volume of 20 mL/kg within approximately 30 minutes prior to dosing and food was provided Ad-libitum after approximately 4 hours following dosing. Animals in “fasted” groups were not fed prior to dosing and food was withheld until after approximately 4 hours after dosing. […]
Pharmacokinetic endpoints and parameters were calculated by noncompartmental analysis (NCA) using WinNonlin®.
The pharmacokinetic parameters Tmax, Cmax, AUCt, AUC∞, T1/2 (elimination), and F (bioavailability) were calculated as well as the coefficient of variation (CV) in each. […]

[2] = Rifalazil solubility in surfactants and surfactant mixtures; type: physicochemical; conditions: thermodynamic from solid
Protocol: The solubility of rifalazil in various surfactants and surfactant mixtures was measured. Excess Rifalazil, drug substance, was equilibrated with the excipient or excipient blend at the indicated temperature for 24 hrs under constant mixing. At the end of the equilibration time, insoluble drug was removed by centrifugation and the supernatant was assayed by UV spectroscopy and/or HPLC to determine the concentration of Rifalazil.

- effect of changes in the formulation upon the elimination half-life (T1/2) [1]: no effect
- solubility at 24 h ([2]; Formulation M1 (excipient blend), aqueous with cosolvent or surfactant or cyclodextrin, in Formulation M1, 24 hrs equilibration): 15.5 mg/mL (≈ 16.5 mM)
- solubility at 24 h ([2]; Formulation M3 (excipient blend), aqueous with cosolvent or surfactant or cyclodextrin, in Formulation M3, 24 hrs equilibration): 25.8 mg/mL (≈ 27.4 mM)
- solubility at 24 h ([2]; Formulation M4 (excipient blend), aqueous with cosolvent or surfactant or cyclodextrin, in Formulation M4, 24 hrs equilibration): 34.1 mg/mL (≈ 36.2 mM)
- solubility at 24 h ([2]; Formulation M5 (excipient blend), aqueous with cosolvent or surfactant or cyclodextrin, in Formulation M5, 24 hrs equilibration): 28.4 mg/mL (≈ 30.1 mM)
- solubility at 24 h ([2]; Formulation M6 (excipient blend), aqueous with cosolvent or surfactant or cyclodextrin, in Formulation M6, 24 hrs equilibration): 30.8 mg/mL (≈ 32.8 mM)
- solubility at 24 h ([2]; Formulation M8 (excipient blend), aqueous with cosolvent or surfactant or cyclodextrin, in Formulation M8, 24 hrs equilibration): 26.9 mg/mL (≈ 28.6 mM)
- solubility at 24 h ([2]; Formulation M9 (excipient blend), aqueous with cosolvent or surfactant or cyclodextrin, in Formulation M9, 24 hrs equilibration): 19.6 mg/mL (≈ 20.8 mM)
- solubility at 24 h ([2]; Formulation M10 (excipient blend), aqueous with cosolvent or surfactant or cyclodextrin, in Formulation M10, 24 hrs equilibration): 36.9 mg/mL (≈ 39.2 mM)
- solubility at 24 h ([2]; Formulations A and B (excipient blend), aqueous with cosolvent or surfactant or cyclodextrin, in Formulations A and B, 24 hrs equilibration): 23 mg/mL (≈ 24.4 mM)
- solubility at 24 h ([2]; Formulations C and D (excipient blend), aqueous with cosolvent or surfactant or cyclodextrin, in Formulations C and D, 24 hrs equilibration): 21 mg/mL (≈ 22.3 mM)
- solubility at 24 h ([2]; aqueous with cosolvent or surfactant or cyclodextrin, in Cremophor ELP, 24 hrs equilibration at 37° C.): 35 mg/mL (≈ 37.2 mM)
- solubility at 24 h ([2]; aqueous with cosolvent or surfactant or cyclodextrin, in Cremophor RH40, 24 hrs equilibration at 37° C.): 23 mg/mL (≈ 24.4 mM)
- solubility at 24 h ([2]; aqueous with cosolvent or surfactant or cyclodextrin, in Labrafil M 1944 CS, 24 hrs equilibration): 41.6 mg/mL (≈ 44.2 mM)
- solubility at 24 h ([2]; aqueous with cosolvent or surfactant or cyclodextrin, in Labrafil M 19944 CS:Etocas 35 (5:1), 24 hrs equilibration): 29 mg/mL (≈ 30.8 mM)
- solubility at 24 h ([2]; aqueous with cosolvent or surfactant or cyclodextrin, in Labrasol, 24 hrs equilibration): 23 mg/mL (≈ 24.4 mM)
- solubility at 24 h ([2]; aqueous with cosolvent or surfactant or cyclodextrin, in Lauroglycol 90, 24 hrs equilibration): 40 mg/mL (≈ 42.5 mM)
- solubility at 24 h ([2]; aqueous with cosolvent or surfactant or cyclodextrin, in TPGS, 24 hrs equilibration at 37° C.): 22 mg/mL (≈ 23.4 mM)
- solubility at 24 h ([2]; oil or lipid, in Oleic Acid, 24 hrs equilibration): 59 mg/mL (≈ 62.7 mM)
- solubility at 24 h ([2]; oil or lipid, in Peceol, 24 hrs equilibration): 14 mg/mL (≈ 14.9 mM)
- solubility at 24 h ([2]; organic solvent or mixture, in PEG 400, 24 hrs equilibration): 8 mg/mL (≈ 8.5 mM)
- solubility at 24 h ([2]; organic solvent or mixture, in PEG 1500, equilibration at 60° C. to melt PEG 1500): 62 mg/mL (≈ 65.9 mM)
Compound: CO[C@H]1/C=C/O[C@@]2(C)Oc3c(C)c(O)c4c(=O)c(c5oc6cc(N7CCN(CC(C)C)CC7)cc(O)c6nc-5c4c3C2=O)NC(=O)/C(C)=C\C=C\[C@H](C)[C@H](O)[C@@H](C)[C@@H](O)[C@@H](C)[C@H](OC(C)=O)[C@@H]1C [Rifalazil]
